Source: ChEMBL document CHEMBL5113517, “Structure-Based Design, Optimization, and Evaluation of Potent Stabilized Peptide Inhibitors Disrupting MTDH and SND1 Interaction” (J Med Chem, 2022)
Active and inactive are the calls of the source. The rule behind the calls is not given here. Peptide text beside a SMILES is read from it.

How the values were obtained:
MDA-MB-468 [1] = assay: Cytotoxicity against human MDA-MB-468 cells assessed as reduction in cell viability at 6.25 to 200 uM incubated for 72 hrs by CCK8 assay; format: functional, cell-based; conditions: dose 6.25-200 µM
[2] = Toxicity in mouse RBC assessed as induction of hemolysis at 200 uM measured after 1 hr by microplate reader assay; format: cell-based; conditions: erythrocyte
MCF-10A = assay: Cytotoxicity against human MCF-10A cells assessed as reduction in cell viability at 6.25 to 200 uM incubated for 72 hrs by CCK8 assay; format: toxicity, cell-based; conditions: dose 6.25-200 µM
MDA-MB-231 [3] = assay: Cytotoxicity against human MDA-MB-231 cells assessed as reduction in cell viability at 6.25 to 200 uM incubated for 72 hrs by CCK8 assay; format: functional, cell-based; conditions: dose 6.25-200 µM
MDA-MB-231 [4] = assay: Inhibition of cell migration in human MDA-MB-231 cells measured after 24 to 48 hrs by wound healing assay; format: functional, cell-based; conditions: time 24-48 hrs
MDA-MB-231 [5] = assay: Inhibition of GST-tagged MTDH (364 ro 582 residues)/His-tagged SND1 (16 to 339 residues) interaction in human MDA-MB-231 cells measured after 12 hrs by co-immunoprecipitation assay; format: cell-based
Homo sapiens = species: Homo sapiens; assay: Inhibition of GST-tagged MTDH (364 ro 582 residues)/His-tagged SND1 (16 to 339 residues) (unknown origin) interaction measured after 12 hrs by pull down assay
MDA-MB-231 [6] = assay: Cell cycle arrest in human MDA-MB-231 cells assessed as accumulation at G0/G1 phase at 50 uM measured after 48 hrs by flow cytometric analysis flow cytometry analysis (reference value: 58.28 %); format: functional
MDA-MB-468 [7] = assay: Cytotoxicity against human MDA-MB-468 cells assessed as reduction in cell viability incubated for 72 hrs by CCK8 assay; format: functional, cell-based
MDA-MB-231 [8] = assay: Cell cycle arrest in human MDA-MB-231 cells assessed as accumulation at S phase at 100 uM measured after 48 hrs by flow cytometric analysis flow cytometry analysis (reference value: 25.81%); format: functional
[9] = Drug uptake in human MDA-MB-231 cells assessed as increase in cell penetration at 10 uM incubated for 12 hrs by flow cytometry method; format: ADME, cell-based; conditions: mda-mb-231, 12 h
[10] = Stability of the compound in mouse serum measured after 3 to 7 days by HPLC analysis; format: ADME, cell-free; conditions: time 3-7 day
MDA-MB-231 [11] = assay: Cell cycle arrest in human MDA-MB-231 cells assessed as accumulation at G0/G1 phase at 100 uM measured after 48 hrs by propidium iodide based flow cytometry analysis (reference value: 57.81 %); format: functional
MDA-MB-231 [12] = assay: Cytotoxicity against human MDA-MB-231 cells assessed as reduction in cell viability incubated for 72 hrs by CCK8 assay; format: functional, cell-based
MDA-MB-231 [13] = assay: Cell cycle arrest in human MDA-MB-231 cells assessed as accumulation at G2/M phase at 100 uM measured after 48 hrs by flow cytometric analysis flow cytometry analysis (reference value: 16.38 %); format: functional
MDA-MB-231 [14] = assay: Cell cycle arrest in human MDA-MB-231 cells assessed as accumulation at G2/M phase at 50 uM measured after 48 hrs by flow cytometric analysis flow cytometry analysis (reference value: 15.84 %); format: functional
MDA-MB-231 [15] = assay: Cytotoxicity against human MDA-MB-231 cells assessed as reduction in cell viability at 100 uM incubated for 72 hrs by CCK8 assay; format: functional
[16] = Drug uptake in human MDA-MB-231 cells assessed as increase in colocalization at 10 uM by confocal microscopy; format: ADME, cell-based; conditions: mda-mb-231, 10 µM
MDA-MB-231 [17] = assay: Antiproliferative activity against human MDA-MB-231 cells assessed as growth inhibition at 100 uM in presence of paclitaxel; format: functional, cell-based
MDA-MB-231 [18] = assay: Cell cycle arrest in human MDA-MB-231 cells assessed as accumulation at S phase at 50 uM measured after 48 hrs by flow cytometric analysis flow cytometry analysis (reference value: 25.88%); format: functional
[19] = Binding affinity to MTDH /His-SND1 (unknown origin) expressed in Escherichia coli BL21(DE3) assessed as dissociation constant by fluorescence polarization assay; parameters: species or system Homo sapiens

Row | Compound | Activity (MDA-MB-231 [6]) [%] | Activity (MDA-MB-231 [8]) [%] | Drug uptake [9] | Activity (MDA-MB-231 [11]) [%] | Activity (MDA-MB-231 [13]) [%] | Activity (MDA-MB-231 [14]) [%] | Drug uptake [16] | Activity (MDA-MB-231 [18]) [%] | Kd [19] [nM] | other results
1 | CC(C)[C@H](NC(=O)[C@H](Cc1c[nH]c2ccccc12)NC(=O)[C@H](CC(N)=O)NC(=O)CNC(=O)[C@H](Cc1c[nH]c2ccccc12)NC(=O)[C@H](CCC(=O)O)NC(=O)[C@H](CCC(=O)O)NC(=O)[C@@H]1CNC(=O)[C@@H](NC(=O)[C@H](Cc2c[nH]c3ccccc23)NC(=O)[C@@H](N)CC(=O)O)CC(=O)N[C@@H](C)C(=O)N2CCC[C@H]2C(=O)N1)C(=O)N[C@@H](CC(=O)O)C(=O)N[C@@H](CCC(=O)O)C(N)=O | 69.94 | 8.32 | Active | 81.56 | 10.12 | 11.55 | Active | 18.5 | 74.1 | Activity (MDA-MB-468 [1]): Active; Activity [2]: Non-Toxic; Activity (MCF-10A): Non-Toxic; Activity (MDA-MB-231 [3]): Active; inhibition (MDA-MB-231 [4]): Active; inhibition (MDA-MB-231 [5]): Active; inhibition (Homo sapiens): Active; Activity (MDA-MB-468 [7]): Active; Stability [10]: Stable; Activity (MDA-MB-231 [12]): Active; Activity (MDA-MB-231 [15]): 60%; Activity (MDA-MB-231 [17]): Active
2 | CC(C)[C@H](NC(=O)[C@H](Cc1c[nH]c2ccccc12)NC(=O)[C@H](CC(N)=O)NC(=O)CNC(=O)[C@H](Cc1c[nH]c2ccccc12)NC(=O)[C@H](CCC(=O)O)NC(=O)[C@H](CCC(=O)O)NC(=O)[C@H](C)NC(=O)[C@@H]1CCCN1C(=O)[C@H](C)NC(=O)[C@H](CC(N)=O)NC(=O)[C@H](Cc1c[nH]c2ccccc12)NC(=O)[C@@H](N)CC(=O)O)C(=O)N[C@@H](CC(=O)O)C(=O)N[C@@H](CCC(=O)O)C(=O)O (H-DWNAPAEEWGNWVDE-OH) | 60.42 | 22.66 | Active | 61.79 | 15.55 | 16.7 | Active | 22.86 | 56.5 | 
